In ChEMBL document CHEMBL5344429, “1,3-Substituted β-Carboline Derivatives as Potent Chemotherapy for the Treatment of Cystic Echinococcosis” (J Med Chem, 2023):
Active and inactive are the calls of the source. The calls are words filed in the database; no cut-off is given here.

What was measured:
[1] = Neurotoxicity in Kunming mouse assessed as increased postsynaptic density in hippocampal at 50 mg/kg, ip administered for 28 days by TEM analysis; assay type: toxicity, organism-based; details: in vivo, 672 h, time 28 day
Echinococcus granulosus [2] = test: Parasiticidal activity against Echinococcus granulosus assessed as cyst destruction at 100 uM incubated for 4 days by scanning electron microscopy; assay type: functional, organism-based; details: time 4.0 day
[3] = Neurotoxicity in Kunming mouse assessed as incomplete mitochondrial membrane in hippocampal at 50 mg/kg, ip administered for 28 days by TEM analysis; assay type: toxicity, organism-based; details: in vivo, 672 h, time 28 day
Echinococcus granulosus [4] = test: Induction of autophagy in Echinococcus granulosus protoscolices assessed as increase in ATG5 expression level at 5 uM measured after 4 days by Western blot analysis; assay type: functional, organism-based; details: time 4.0 day
Echinococcus granulosus [5] = test: Parasiticidal activity against Echinococcus granulosus microcyst infected in kunming mouse assessed as mean cyst weight at 25 mg/kg, ip administered for 14 days; assay type: functional; details: time 14 day
[6] = Neurotoxicity in Kunming mouse assessed as deformed pyramidal cells in brain at 50 mg/kg, ip administered for 28 days by H and E staining based assay; assay type: toxicity, organism-based; details: in vivo, 672 h, time 28 day
Echinococcus granulosus [7] = test: Parasiticidal activity against intraperitoneal cystic Echinococcus granulosus infected in Kunming mouse assessed as decrease number of microvilli at 50 mg/kg, ip administered for 28 days by TEM analysis; assay type: functional, organism-based; details: time 28.0 day
Echinococcus granulosus [8] = test: Parasiticidal activity against intraperitoneal cystic Echinococcus granulosus infected in Kunming mouse assessed as reduction in cell count with clear nucleolus at 50 mg/kg, ip administered for 28 days by TEM analysis; assay type: functional, organism-based; details: time 28.0 day
Echinococcus granulosus [9] = test: Parasiticidal activity against Echinococcus granulosus microcyst infected in kunming mouse assessed as reduction in cyst weight at 25 mg/kg, ip administered for 14 days relative to control; assay type: functional; parameters: scale not given: the % may be the effect or the level left; details: time 14 day
[10] = Neurotoxicity in Kunming mouse assessed as swollen pyramidal cells in brain at 50 mg/kg, ip administered for 28 days by H and E staining based assay; assay type: toxicity, organism-based; details: in vivo, 672 h, time 28 day
Echinococcus granulosus [11] = test: Parasiticidal activity against Echinococcus granulosus microcyst infected in kunming mouse assessed as reduction in cyst weight at 50 mg/kg, ip administered for 14 days relative to control; assay type: functional; parameters: scale not given: the % may be the effect or the level left; details: time 14 day
Echinococcus granulosus [12] = test: Parasiticidal activity against Echinococcus granulosus protoscolices assessed as appearance of partial shedding at 5 uM incubated for 4 days by H and E staining based assay; assay type: functional, organism-based; details: time 4.0 day
Echinococcus granulosus [13] = test: Parasiticidal activity against Echinococcus granulosus microcyst infected in kunming mouse assessed as mean cyst weight at 12.5 mg/kg, ip administered for 14 days; assay type: functional; details: time 14 day
Echinococcus granulosus [14] = test: Parasiticidal activity against intraperitoneal cystic Echinococcus granulosus infected in Kunming mouse assessed as appearance of unclear cortex at 50 mg/kg, ip administered for 28 days by TEM analysis; assay type: functional, organism-based; details: time 28.0 day
Echinococcus granulosus [15] = test: Induction of autophagy in Echinococcus granulosus protoscolices assessed as decrease in p62 expression level at 5 uM measured after 4 days by Western blot analysis; assay type: functional, organism-based; details: time 4.0 day
Echinococcus granulosus [16] = test: Parasiticidal activity against Echinococcus granulosus microcyst infected in kunming mouse assessed as mean cyst weight at 50 mg/kg, ip administered for 28 days; assay type: functional; details: time 28 day
Echinococcus granulosus [17] = test: Parasiticidal activity against Echinococcus granulosus protoscolices assessed as survival rate at 1 uM incubated for 48 hrs by eosin exclusion test; assay type: functional
Echinococcus granulosus [18] = test: Parasiticidal activity against Echinococcus granulosus protoscolices assessed as body shrank with irregular edge at 5 uM incubated for 4 days by H and E staining based assay; assay type: functional, organism-based; details: time 4.0 day
Echinococcus granulosus [19] = test: Parasiticidal activity against Echinococcus granulosus microcyst infected in kunming mouse assessed as reduction in cyst weight at 12.5 mg/kg, ip administered for 14 days relative to control; assay type: functional; parameters: scale not given: the % may be the effect or the level left; details: time 14 day
Echinococcus granulosus [20] = test: Parasiticidal activity against Echinococcus granulosus protoscolices […] by eosin exclusion test; assay type: functional; details: 1152 h, time 48 day
[21] = Neurotoxicity in Kunming mouse assessed as blurred synaptic space in hippocampal at 50 mg/kg, ip administered for 28 days by TEM analysis; assay type: toxicity, organism-based; details: in vivo, 672 h, time 28 day
Echinococcus granulosus [22] = test: Parasiticidal activity against Echinococcus granulosus microcyst infected in kunming mouse assessed as reduction in cyst weight at 50 mg/kg, ip administered for 28 days relative to control; assay type: functional; parameters: scale not given: the % may be the effect or the level left; details: time 28 day
Echinococcus granulosus [23] = test: Induction of autophagy in Echinococcus granulosus protoscolices assessed as increase in Beclin1 expression level at 5 uM measured after 4 days by Western blot analysis; assay type: functional, organism-based; details: time 4.0 day
[24] = Neurotoxicity in Kunming mouse assessed as widened perinuclear space in hippocampal neurons at 50 mg/kg, ip administered for 28 days by TEM analysis; assay type: toxicity, organism-based; details: in vivo, 672 h, time 28 day
Echinococcus granulosus [25] = test: Parasiticidal activity against Echinococcus granulosus microcyst infected in kunming mouse assessed as mean cyst weight at 25 mg/kg, ip administered for 28 days; assay type: functional; details: time 28 day
Echinococcus granulosus [26] = test: Parasiticidal activity against Echinococcus granulosus microcyst infected in kunming mouse assessed as reduction in cyst weight at 25 mg/kg, ip administered for 28 days relative to control; assay type: functional; parameters: scale not given: the % may be the effect or the level left; details: time 28 day
Echinococcus granulosus [27] = test: Parasiticidal activity against Echinococcus granulosus microcyst infected in kunming mouse assessed as mean cyst weight at 50 mg/kg, ip administered for 14 days; assay type: functional; details: time 14 day
Echinococcus granulosus [28] = test: Parasiticidal activity against Echinococcus granulosus microcyst infected in kunming mouse assessed as mean cyst weight at 12.5 mg/kg, ip administered for 28 days; assay type: functional; details: time 28 day
[29] = Neurotoxicity in Kunming mouse assessed as loosely arranged pyramidal cells in brain at 50 mg/kg, ip administered for 28 days by H and E staining based assay; assay type: toxicity, organism-based; details: in vivo, 672 h, time 28 day
Echinococcus granulosus [30] = test: Parasiticidal activity against Echinococcus granulosus protoscolices assessed as appearance of relative completion of sucker at 5 uM incubated for 2 days by scanning electron microscopy; assay type: functional, organism-based; details: time 2.0 day
Echinococcus granulosus [31] = test: Parasiticidal activity against Echinococcus granulosus protoscolices assessed as outer skin and hooks fall off at 5 uM incubated for 2 days by scanning electron microscopy; assay type: functional, organism-based; details: time 2.0 day
[32] = Neurotoxicity in Kunming mouse assessed as partial cristae in hippocampal at 50 mg/kg, ip administered for 28 days by TEM analysis; assay type: toxicity, organism-based; details: in vivo, 672 h, time 28 day
Echinococcus granulosus [33] = test: Parasiticidal activity against Echinococcus granulosus microcyst infected in kunming mouse assessed as reduction in cyst weight at 12.5 mg/kg, ip administered for 28 days relative to control; assay type: functional; parameters: scale not given: the % may be the effect or the level left; details: time 28 day
Echinococcus granulosus [34] = test: Parasiticidal activity against Echinococcus granulosus protoscolices assessed as partial vacuolar change at 5 uM incubated for 4 days by scanning electron microscopy analysis; assay type: functional, organism-based; details: time 4.0 day
Echinococcus granulosus [35] = test: Parasiticidal activity against Echinococcus granulosus protoscolices assessed as appearance of body shrank at 5 uM incubated for 4 days by scanning electron microscopy analysis; assay type: functional, organism-based; details: time 4.0 day
[36] = AUC (0 to infinity) in Wistar rat at 5 mg/kg, iv by HPLC analysis; assay type: ADME, organism-based; parameters: dose 5 mg/kg, route iv; details: in vivo
Echinococcus granulosus [37] = test: Parasiticidal activity against Echinococcus granulosus protoscolices assessed as death rate at 5 uM incubated for 4 days by eosin exclusion test; assay type: functional; details: time 4 day
Echinococcus granulosus [38] = test: Parasiticidal activity against Echinococcus granulosus protoscolices assessed as degeneration of outer skin at 5 uM incubated for 4 days by scanning electron microscopy; assay type: functional, organism-based; details: time 4.0 day
Echinococcus granulosus [39] = test: Parasiticidal activity against Echinococcus granulosus protoscolices assessed as death rate at 1 uM incubated for 48 hrs by eosin exclusion test; assay type: functional
Echinococcus granulosus [40] = test: Parasiticidal activity against Echinococcus granulosus assessed as collapse of germinal layers at 100 uM incubated for 4 days by scanning electron microscopy; assay type: functional, organism-based; details: time 4.0 day
Echinococcus granulosus [41] = test: Parasiticidal activity against Echinococcus granulosus protoscolices assessed as change in ultrastructure at 5 uM incubated for 4 days by scanning electron microscopy; assay type: functional, organism-based; details: time 4.0 day
[42] = Cmax in Wistar rat at 5 mg/kg, iv by HPLC analysis; assay type: ADME, organism-based; parameters: dose 5 mg/kg, route iv; details: in vivo
Echinococcus granulosus [43] = test: Parasiticidal activity against Echinococcus granulosus protoscolices assessed as loss of hooks at 5 uM incubated for 4 days by scanning electron microscopy; assay type: functional, organism-based; details: time 4.0 day
Echinococcus granulosus [44] = test: Parasiticidal activity against Echinococcus granulosus protoscolices assessed as lethal effect at 0.5 to 5 uM by eosin exclusion test; assay type: functional, organism-based; details: dose 0.5-5 µM, TDE = time-dependent effect
Echinococcus granulosus [45] = test: Parasiticidal activity against Echinococcus granulosus protoscolices assessed as death rate at 0.5 uM incubated for 4 days by eosin exclusion test; assay type: functional; details: time 4 day
Echinococcus granulosus [46] = test: Parasiticidal activity against Echinococcus granulosus protoscolices assessed as appearance of rostellum hooks fall off at 5 uM incubated for 4 days by scanning electron microscopy analysis; assay type: functional, organism-based; details: time 4.0 day
[47] = Oral bioavailability in Wistar rat at 50 mg/kg, […] by HPLC analysis; assay type: ADME, organism-based; details: in vivo
Echinococcus granulosus [48] = test: Parasiticidal activity against Echinococcus granulosus protoscolices assessed as lethal effect incubated for 4 days by eosin exclusion test; assay type: functional, organism-based; details: dose 0.5-5 µM, time 4.0 day
Echinococcus granulosus [49] = test: Parasiticidal activity against Echinococcus granulosus protoscolices assessed as loss of suckers at 5 uM incubated for 4 days by scanning electron microscopy; assay type: functional; details: time 4.0 day
Echinococcus granulosus [50] = test: Parasiticidal activity against Echinococcus granulosus protoscolices assessed as appearance of blurred marginal structure at 5 uM incubated for 4 days by scanning electron microscopy analysis; assay type: functional, organism-based; details: time 4.0 day
Echinococcus granulosus [51] = test: Parasiticidal activity against Echinococcus granulosus cyst assessed as formation of dense aggregates at 100 uM incubated for 4 days by scanning electron microscopy; assay type: functional, organism-based; details: time 4.0 day
Echinococcus granulosus [52] = test: Parasiticidal activity against Echinococcus granulosus protoscolices assessed as increase in death rate at 5 uM incubated for 4 days by darker staining-based light microscopy; assay type: functional, organism-based; details: time 4.0 day
Echinococcus granulosus [53] = test: Parasiticidal activity against Echinococcus granulosus cyst assessed as seperation from cuticle at 100 uM incubated for 4 days by scanning electron microscopy; assay type: functional, organism-based; details: time 4.0 day

For `COc1ccc2c(c1)[nH]c1c(C)nccc12` [HARMINE], the Activity [1] was “Toxic”, the Activity (Echinococcus granulosus [2]) was “inactive” and the Activity [3] was “Toxic”. The Activity (Echinococcus granulosus [4]) was “Active”, the Activity (Echinococcus granulosus [5]) was 25.1 mg and the Activity [6] was “Toxic”. The Activity (Echinococcus granulosus [7]) was “Active”, the Activity (Echinococcus granulosus [8]) was “Active” and the Activity (Echinococcus granulosus [9]) was 51.2%. For the same molecule, the Activity [10] was “Toxic”, the Activity (Echinococcus granulosus [11]) was 55.97% and the Activity (Echinococcus granulosus [12]) was “Active”. For the same molecule, the Activity (Echinococcus granulosus [13]) was 27.8 mg, the Activity (Echinococcus granulosus [14]) was “Active” and the Activity (Echinococcus granulosus [15]) was “Active”. The Activity (Echinococcus granulosus [16]) was 23.4 mg, the Activity (Echinococcus granulosus [17]) was 100% and the Activity (Echinococcus granulosus [18]) was “Active”. For the same molecule, the Activity (Echinococcus granulosus [19]) was 46.13%, the LC50 (Echinococcus granulosus [20]) was 135 µM and the Activity [21] was “Toxic”. The Activity (Echinococcus granulosus [22]) was 56.93%, the Activity (Echinococcus granulosus [23]) was “Active” and the Activity [24] was “Toxic”. It also gave an Activity (Echinococcus granulosus [25]) of 24.8 mg, an Activity (Echinococcus granulosus [26]) of 54.4% and an Activity (Echinococcus granulosus [27]) of 22.7 mg. The Activity (Echinococcus granulosus [28]) was 26.6 mg, the Activity [29] was “Toxic” and the Activity (Echinococcus granulosus [30]) was “Active”. The Activity (Echinococcus granulosus [31]) was “Active”, the Activity [32] was “Toxic” and the Activity (Echinococcus granulosus [33]) was 67.17%.
With `COc1ccc(-c2nc(NC(=O)c3ccc(CN4CCC(N5CCCCC5)CC4)cc3)cc3c2[nH]c2ccccc23)cc1OC` the Activity (Echinococcus granulosus [34]) was “Active”, the Activity (Echinococcus granulosus [35]) was “Active” and the AUC(0-inf) [36] was 1770 ng·h/mL. The Activity (Echinococcus granulosus [37]) was over 90%, the Activity (Echinococcus granulosus [38]) was “Active” and the Activity (Echinococcus granulosus [39]) was 56.27%. For the same molecule, the Activity (Echinococcus granulosus [40]) was “Active”, the Activity (Echinococcus granulosus [41]) was “Active” and the Cmax [42] was 1400 ng/mL. The Activity (Echinococcus granulosus [43]) was “Active”, the Activity (Echinococcus granulosus [44]) was “Tde” and the Activity (Echinococcus granulosus [45]) was over 50%. For the same molecule, the Activity (Echinococcus granulosus [46]) was “Active”, the LC50 (Echinococcus granulosus [20]) was 3.59 µM and the bioavailability [47] was 26.8%. The Activity (Echinococcus granulosus [48]) was “Dose-Dependent Effect”, the Activity (Echinococcus granulosus [49]) was “Active” and the Activity (Echinococcus granulosus [50]) was “Active”. The Activity (Echinococcus granulosus [51]) was “Active”, the Activity (Echinococcus granulosus [52]) was “Active” and the Activity (Echinococcus granulosus [53]) was “Active”.
With `COc1ccc(-c2nc(C(=O)Nc3ccc(CN4CCC(N5CCCCC5)CC4)cc3)cc3c2[nH]c2ccccc23)cc1OC` the Activity (Echinococcus granulosus [39]) was “Active” and the LC50 (Echinococcus granulosus [20]) was 6.49 µM.
For `COc1ccc(-c2nc(NC(=O)c3ccc(CN4CCCN(C)CC4)cc3)cc3c2[nH]c2ccccc23)cc1OC`, the Activity (Echinococcus granulosus [39]) was “Active” and the LC50 (Echinococcus granulosus [20]) was 13.2 µM.
